Data: patent US20200308170A1, “KRAS G12C INHIBITORS” (Mirati Therapeutics, Inc., priority 2017, published 2020)

biological target: KRas G12C (Homo sapiens, UniProt P01116, G12C); assay: Inhibition of KRas G12C in NCI-H358 cells measured by phosphorylated ERK (Phospho-ERK); format: cell-based; conditions: 3 hours, 4 parameter fit, read-out: IC50 (pERK(Thr202/Tyr204) signal normalized with GAPDH)
Method: Cells were plated in poly-D-Lysine coated 96-well plates at a concentration of 50,000 cells/well and allowed to attach for 8-12 hours. Diluted compounds were then added at a final concentration of 0.5% DMSO. After 3 hours, the medium was removed, 150 μL of 4% formaldehyde was added and the plates were incubated for 20 minutes. The plates were washed with PBS, and permeabilized using 150 μL of ice cold 100% methanol for 10 minutes. Non-specific antibody binding to the plates was blocked using 100 μL Licor Blocking Buffer (Li-Cor Biotechnology, Lincoln Nebr.) for 1 hour at room temperature. Positive control samples and samples lacking cells were parallel processed with test samples as standards.
The amount Phospho-ERK was determined using an antibody specific for the phosphorylated form of ERK and compared to the amount of GAPDH. […] The plates were incubated for 2 hours at room temperature. The plates were washed with PBS+0.05% Tween 20.
Secondary antibodies used to visualize primary antibodies were added as follows: Anti-rabbit-680 diluted 1:1000 and Anti-mouse-800 diluted 1:1000 in Licor Block+0.05% Tween 20 and incubated for 1 hour at room temperature. The plates were washed with PBS+0.05% Tween 20. A 100 μL aliquot of PBS was added to each well and the plates were read on a LICOR AERIUS plate reader.
The pERK(Thr202/Tyr204) signal was normalized with the GAPDH signal and percent of DMSO control values were calculated. IC50 values were generated using a 4 parameter fit of the dose response curve.

Sequence of KRas G12C (P01116 1-188 isoform P01116-2 G12C): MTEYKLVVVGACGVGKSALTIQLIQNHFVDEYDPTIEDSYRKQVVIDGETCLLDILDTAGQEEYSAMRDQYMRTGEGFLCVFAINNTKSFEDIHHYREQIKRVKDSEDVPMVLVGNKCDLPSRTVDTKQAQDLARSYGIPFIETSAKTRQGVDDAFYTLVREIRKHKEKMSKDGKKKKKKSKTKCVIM

IC50 [nM] | Structure (SMILES)
1000 to 10000 | CN1CC(F)(F)C[C@H]1COc1nc2c(c(N3CCN(C(=O)/C=C/CN4CC(F)C4)[C@@H](CC#N)C3)n1)CCN(c1cccc3cccc(Cl)c13)C2 [Example 57, 2-((S)-4-(7-(8-chloronaphthalen-1-yl)-2-(((S)-4,4-difluoro-1-methylpyrrolidin-2-yl)methoxy)-5,6,7,8-tetrahydropyrido[3,4-d]pyrimidin-4-yl)-1-((E)-4-(3-fluoroazetidin-1-yl)but-2-enoyl)piperazin-2-yl)acetonitrile]
0.1 to 1000 | COC/C=C/C(=O)N1CCN(c2nc(OC[C@@H]3CC(F)(F)CN3C)nc3c2CCN(c2cccc4cccc(C)c24)C3)C[C@@H]1CC#N [Example 60, 2-((S)-4-(2-(((S)-4,4-difluoro-1-methylpyrrolidin-2-yl)methoxy)-7-(8-methylnaphthalen-1-yl)-5,6,7,8-tetrahydropyrido[3,4-d]pyrimidin-4-yl)-1-((E)-4-methoxybut-2-enoyl)piperazin-2-yl)acetonitrile]
0.1 to 1000 | C=C(F)C(=O)N1CCN(c2nc(OCC3CCN3C(C)(C)C)nc3c2CCN(c2cccc4cccc(C)c24)C3)C[C@@H]1CC#N (stereo partly drawn) [Example 74, 2-((2S)-4-(2-((1-(tert-butyl)azetidin-2-yl)methoxy)-7-(8-methylnaphthalen-1-yl)-5,6,7,8-tetrahydropyrido[3,4-d]pyrimidin-4-yl)-1-(2-fluoroacryloyl)piperazin-2-yl)acetonitrile]
0.1 to 1000 | C=C(F)C(=O)N1CCN(c2nc(OCC34CCCN3CCC4)nc3c2CCN(c2cccc4cccc(Cl)c24)C3)C[C@@H]1CC#N [Example 105, (S)-2-(4-(7-(8-chloronaphthalen-1-yl)-2-((tetrahydro-1H-pyrrolizin-7a(5H)-yl)methoxy)-5,6,7,8-tetrahydropyrido[3,4-d]pyrimidin-4-yl)-1-(2-fluoroacryloyl)piperazin-2-yl)acetonitrile]
1000 to 10000 | C=C(F)C(=O)N1CCN(c2nc(OC3CCN(C4CCOCC4)CC3)nc3c2CCN(c2cccc4cccc(Cl)c24)C3)C[C@@H]1CC#N [Example 130, (S)-2-(4-(7-(8-chloronaphthalen-1-yl)-2-((1-(tetrahydro-2H-pyran-4-yl)piperidin-4-yl)oxy)-5,6,7,8-tetrahydropyrido[3,4-d]pyrimidin-4-yl)-1-(2-fluoroacryloyl)piperazin-2-yl)acetonitrile]
0.1 to 1000 | C=C(F)C(=O)N1CCN(c2nc(OC[C@@H]3CCCN3C)nc3c2CCN(c2cccc4ccc(F)c(C)c24)C3)C[C@@H]1CC#N [Example 131, 2-((S)-4-(7-(7-fluoro-8-methylnaphthalen-1-yl)-2-(((S)-1-methylpyrrolidin-2-yl)methoxy)-5,6,7,8-tetrahydropyrido[3,4-d]pyrimidin-4-yl)-1-(2-fluoroacryloyl)piperazin-2-yl)acetonitrile]
0.1 to 1000 | C=C(F)C(=O)N1CCN(c2nc(OC[C@@H]3CCCN3C)nc3c2CCN(c2cccc4ccc(F)c(Cl)c24)C3)C[C@@H]1CC#N [Example 133]
0.1 to 1000 | C=C(F)C(=O)N1CCN(c2nc(OC[C@@H]3CCCN3C)nc3c2CCN(c2cccc4c2CCC4)C3)C[C@@H]1CC#N [Example 135]
0.1 to 1000 | C=C(F)C(=O)N1CCN(c2nc(OC[C@@H]3CCCN3C)nc3c2CCN(c2cccc4ccc(F)c(F)c24)C3)C[C@@H]1CC#N [Example 136]
1000 to 10000 | C=C(F)C(=O)N1CCN(c2nc(OC[C@@H]3CCCN3C)nc3c2CCN(c2cccc4ccc(Cl)c(Cl)c24)C3)C[C@@H]1CC#N [Example 137]
0.1 to 1000 | C=C(F)C(=O)N1CCN(c2nc(OCC34CCCN3CCC4)nc3c2CCN(c2cccc4ccc(F)c(Cl)c24)C3)C[C@@H]1CC#N [Example 138, (S)-2-(4-(7-(8-chloro-7-fluoronaphthalen-1-yl)-2-((tetrahydro-1H-pyrrolizin-7a(5H)-yl)methoxy)-5,6,7,8-tetrahydropyrido[3,4-d]pyrimidin-4-yl)-1-(2-fluoroacryloyl)piperazin-2-yl)acetonitrile]
0.1 to 1000 | C=C(F)C(=O)N1CCN(c2nc(OCC3(C)CCCN3C)nc3c2CCN(c2cccc4ccc(F)c(Cl)c24)C3)C[C@@H]1CC#N (stereo partly drawn) [Example 139, 2-((2S)-4-(7-(8-chloro-7-fluoronaphthalen-1-yl)-2-((1,2-dimethylpyrrolidin-2-yl)methoxy)-5,6,7,8-tetrahydropyrido[3,4-d]pyrimidin-4-yl)-1-(2-fluoroacryloyl)piperazin-2-yl)acetonitrile]
0.1 to 1000 | C=C(F)C(=O)N1CCN(c2nc(OCC34CCCN3CCC4)nc3c2CCN(c2cccc(F)c2C(F)(F)F)C3)C[C@@H]1CC#N [Example 140]
0.1 to 1000 | C=C(F)C(=O)N1CCN(c2nc(OCC34CCCN3CCC4)nc3c2CCN(c2cccc(Cl)c2C(F)(F)F)C3)C[C@@H]1CC#N [Example 141]
0.1 to 1000 | C=C(F)C(=O)N1CCN(c2nc(OCC34CCCN3CCC4)nc3c2CCN(c2cccc(C)c2C)C3)C[C@@H]1CC#N [Example 142]
0.1 to 1000 | C=C(F)C(=O)N1CCN(c2nc(OCC34CCCN3CCC4)nc3c2CCN(c2cccc4cccc(Br)c24)C3)C[C@@H]1CC#N [Example 143]
0.1 to 1000 | C=C(F)C(=O)N1CCN(c2nc(OCC34CCCN3CCC4)nc3c2CCN(c2cccc(C)c2C(F)(F)F)C3)C[C@@H]1CC#N [Example 144]
1000 to 10000 | C=C(F)C(=O)N1CCN(c2nc(OCC34CCCN3C(=O)CC4)nc3c2CCN(c2cccc4ccc(F)c(Cl)c24)C3)C[C@@H]1CC#N (stereo partly shown) [Example 145]
0.1 to 1000 | C=C(F)C(=O)N1CCN(c2nc(OCC34CCCN3CCC4)nc3c2CCN(c2cccc4ccccc24)C3)C[C@@H]1CC#N [Example 146]

IC50 [nM] | Structure (SMILES)
0.1 to 1000 | C=C(F)C(=O)N1CCN(c2nc(OC[C@@H]3CCCN3C(C)C)nc3c2CCN(c2cccc4ccc(F)c(Cl)c24)C3)C[C@@H]1CC#N [Example 147, 2-((S)-4-(7-(8-chloro-7-fluoronaphthalen-1-yl)-2-(((S)-1-isopropylpyrrolidin-2-yl)methoxy)-5,6,7,8-tetrahydropyrido[3,4-d]pyrimidin-4-yl)-1-(2-fluoroacryloyl)piperazin-2-yl)acetonitrile]
1000 to 10000 | C=C(F)C(=O)N1CCN(c2nc(OCCN(C)CC(F)(F)F)nc3c2CCN(c2cccc4ccc(F)c(Cl)c24)C3)C[C@@H]1CC#N [Example 148, (S)-2-(4-(7-(8-chloro-7-fluoronaphthalen-1-yl)-2-(2-(methyl(2,2,2-trifluoroethyl)amino)ethoxy)-5,6,7,8-tetrahydropyrido[3,4-d]pyrimidin-4-yl)-1-(2-fluoroacryloyl)piperazin-2-yl)acetonitrile]
1000 to 10000 | C=C(F)C(=O)N1CCN(c2nc(OC3CC4(C3)CN(C)C4)nc3c2CCN(c2cccc4ccc(F)c(Cl)c24)C3)C[C@@H]1CC#N [Example 149]
0.1 to 1000 | C=C(F)C(=O)N1CCN(c2nc(OC3CCN(C(C)C)C3)nc3c2CCN(c2cccc4ccc(F)c(Cl)c24)C3)C[C@@H]1CC#N (stereo partly shown) [Example 150]
0.1 to 1000 | C=C(F)C(=O)N1CCN(c2nc(OCC34CCCCN3CCC4)nc3c2CCN(c2cccc4ccc(F)c(Cl)c24)C3)C[C@@H]1CC#N (stereo partly shown) [Example 151]
1000 to 10000 | C=C(F)C(=O)N1CCN(c2nc(OC3CCCN(C(C)C)C3)nc3c2CCN(c2cccc4ccc(F)c(Cl)c24)C3)C[C@@H]1CC#N (stereo partly shown) [Example 152]
1000 to 10000 | C=C(F)C(=O)N1CCN(c2nc(O[C@H]3CCC[C@@H]3N(C)C)nc3c2CCN(c2cccc4ccc(F)c(Cl)c24)C3)C[C@@H]1CC#N [Example 153]
1000 to 10000 | C=C(F)C(=O)N1CCN(c2nc(OC3CN4CCC3CC4)nc3c2CCN(c2cccc4ccc(F)c(Cl)c24)C3)C[C@@H]1CC#N (stereo partly shown) [Example 154]
0.1 to 1000 | C=C(F)C(=O)N1CCN(c2nc(OCC34COCN3COC4)nc3c2CCN(c2cccc4ccc(F)c(Cl)c24)C3)C[C@@H]1CC#N [Example 155]
0.1 to 1000 | C=C(F)C(=O)N1CCN(c2nc(OCC34CCCN3C[C@H](F)C4)nc3c2CCN(c2cccc4ccc(F)c(Cl)c24)C3)C[C@@H]1CC#N (stereo partly shown) [Example 156]
1000 to 10000 | C=C(F)C(=O)N1CCN(c2nc(OC3CN(CCC#N)C3)nc3c2CCN(c2cccc4ccc(F)c(Cl)c24)C3)C[C@@H]1CC#N [Example 157]
0.1 to 1000 | C=C(F)C(=O)N1CCN(c2nc(OCC(C)N3CCCCC3)nc3c2CCN(c2cccc4ccc(F)c(Cl)c24)C3)C[C@@H]1CC#N (stereo partly shown) [Example 158]
0.1 to 1000 | C=C(F)C(=O)N1CCN(c2nc(OCCN(CC)CC)nc3c2CCN(c2cccc4ccc(F)c(Cl)c24)C3)C[C@@H]1CC#N [Example 159]
0.1 to 1000 | C=C(F)C(=O)N1CCN(c2nc(OCC3CC4(CC4)CN3C)nc3c2CCN(c2cccc4ccc(F)c(Cl)c24)C3)C[C@@H]1CC#N (stereo partly shown) [Example 160]
0.1 to 1000 | C=C(F)C(=O)N1CCN(c2nc(OCC3COCCC34CN(C)C4)nc3c2CCN(c2cccc4ccc(F)c(Cl)c24)C3)C[C@@H]1CC#N (stereo partly shown) [Example 161]
0.1 to 1000 | C=C(F)C(=O)N1CCN(c2nc(OCC3CN(C)CCC34CN(C)C4)nc3c2CCN(c2cccc4ccc(F)c(Cl)c24)C3)C[C@@H]1CC#N (stereo partly shown) [Example 162]
1000 to 10000 | C=C(F)C(=O)N1CCN(c2nc(OCCn3ccnc3)nc3c2CCN(c2cccc4ccc(F)c(Cl)c24)C3)C[C@@H]1CC#N [Example 163]
1000 to 10000 | C=C(F)C(=O)N1CCN(c2nc(OCC(C)N3C[C@@H](C)O[C@@H](C)C3)nc3c2CCN(c2cccc4ccc(F)c(Cl)c24)C3)C[C@@H]1CC#N (stereo partly shown) [Example 164]
